Usually IC50 stands for the point on the concentration scale where inhibition reaches its midpoint.

We go through 36 molecules from patent publication US5516797A, “Immunosuppressive compounds” (Vertex Pharmaceuticals, Incorporated, priority 1994, dated 1996).

Assay [1] has as its target FK-506 binding protein (FKBP) (Homo sapiens, UniProt P62942). Nature of the assay: Inhibition of PPIase (rotamase) enzyme activity of FKBP (apparent Ki). It is filed as biochemical. The note with it: substrate N-succinylAla-Ala-Pro-Phe-p-nitroanilide, chymotrypsin-coupled. The text has this: The inhibition of the PPIase (rotamase) enzyme activity of the FKBP (apparent "Ki" values) can also be measured according to the methods described by either Harding, M. W. et al., Nature 341:758-760 (1989) or Siekierka, J. J. et al., Nature 341:755-757 (1989). The cis-trans isomerization of the proline-alanine peptide bond in a model substrate, N-succinylAla-Ala-Pro-Phe-p-nitroanilide, is monitored spectrophotometrically in a coupled assay with chymotrypsin, which releases 4-nitroanilide from the trans form of the substrate. Fischer, G. et al., Nature 337:476-478 (1989). The inhibitory effect of the addition of different concentrations of inhibitor on the extent of the reaction is determined, and analysis of the change in first order rate constant as a function of inhibitor concentration yields an estimate of the apparent Ki value.

For assay [2], the system named is human peripheral blood lymphocytes. Nature of the assay: Mitogenesis assay OKT3: inhibition of proliferation of human PBLs. The format is cell-based. To be noted: Lymphocyte, OKT3 (10^-4 dilution final), 48 h incubation. As for the experimental part: (§1) PMA and OKT3mitogens used to stimulate proliferation of human peripheral
(§2) blood lymphocytes (PBC). Compounds are evaluated on their ability to
(§3) Fresh peripheral blood lymphocytes (PBLs) from LeukoPak cells or whole blood from random normal blood donors (tested HIV-negative and hepatitis negative) are isolated and separated by density centrifugation over Histopaque 1077 (Sigma Chemical Co., St. Louis, Mo.). The murine CTLL cytotoxic T cell line and the human Jurkat T cell line are from ATCC (CTLL-2 ATCC TIB214, JURKAT CLONE E6-1 ATCC TIBl52). The human allogeneic B cell lines used for activation of the fresh PBLs are EBV-transformed lymphocytes from normal healthy adult donors with two completely different HLAhaplotypes. All cell lines were routinely tested for the presence of Mycolasma contamination using the GibcoMycotect test kit and are Mycolasma-free. Culture medium consksts of RPMI 1640 (Gibco, Grand Island, N.Y.) containing penicillin (50 U/ml) and streptomycin (50 μg/ml), L-glutamine 2 mM, 2 mercaptoethanol (5×10^-5), 10% heat-inactivated FCS and 10 mM HEPES.
(§4) All chemical stocks were dissolved in DMSO.
(§5) Mitogenesis Assays ("PMA" and "OKT3")
(§6) After 48 h incubation (37° C., 5% CO2), cells were pulsed with 1 μCi of ^3 H-thymidine, harvested 24 h later with a Tom Tek cell harvester, and counted in LKB β-scintillation counter.

Assay [3] concerns PBLs stimulated with JVM human viral transformed B lymphoblastoid cells. Nature of the assay: MLR bioassay JVM: inhibition of proliferation in mixed lymphocyte reaction. It is filed as cell-based. To be noted: Lymphoblastoid cell, pulsed on day 6, harvested 24 h later. As for the experimental part:
(§7) LB and JVMhuman viraltransformed B lymphoblastoid cell lines stimulated t
(§8) proliferate in a mixed lymphocyte reaction (MLR). The compounds are
(§9) evaluated on their ability to inhibit this proliferation.
as §3, §4
(§10) MLR Bioassays ("LB" and "JVM")
(§11) Antigen activated proliferation of PBLs in a primary mixed lymphocyte reaction was assessed in the presence or absence of different concentrations of tested compounds and control drugs. 5×10^4 fresh PBLs were stimulated with 5×10^3 of Mitomycin C treated-allogeneic EBV-transformed β-lymphoglastoid cells, IB and JVM, in a final volume of 200 μl per well in 96-well round-bottomed plates (Mishell, B. B. and S. M. Shiigi, Selected Methods in Cellular Immunology W. H. Freeman and Co., San Francisco, Calif. (1980); Nelson, P. A. et al., Transplantation 50:286 (1990)). Cultures were pulsed on day 6, harvested 24 h later and counted as in previous section.

Assay [4] deals with human peripheral blood lymphocytes. Nature of the assay: Mitogenesis assay PMA: inhibition of proliferation of human PBLs. The format is cell-based. To be noted: Lymphocyte, PMA (10 ng/ml) plus ionomycin (250 ng/ml), 48 h incubation. How it is done: as §1, §2, §3, §4, §5, §6
In assay [5] the test system is PBLs stimulated with LB human viral transformed B lymphoblastoid cells. Nature of the assay: MLR bioassay LB: inhibition of proliferation in mixed lymphocyte reaction. It is filed as cell-based. The note with it: Lymphoblastoid cell, pulsed on day 6, harvested 24 h later. As for the experimental part: as §7, §8, §9, §3, §4, §10, §11

Chain of FK-506 binding protein (FKBP) (P62942 whole entry): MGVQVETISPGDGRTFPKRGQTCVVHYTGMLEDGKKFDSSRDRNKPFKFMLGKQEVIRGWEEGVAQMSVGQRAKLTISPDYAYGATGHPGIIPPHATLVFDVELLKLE

`C=CCOC(=O)[C@@H]1CCCCN1C(=O)C(=O)c1ccccc1` [Compound 4]: the Ki in assay [1] is 8 µM.

With `O=C(C(=O)N1CCCC[C@H]1C(=O)Oc1cccc2ccccc12)c1ccccc1` [Compound 5], the IC50 in assay [2], in assay [3], in assay [4] and in assay [5] was above 10 µM in each case. For the same molecule, the Ki in assay [1] was found to be 0.9 µM.

Take `CC(C)CC(=O)C(=O)N1CCCC[C@H]1C(=O)OCc1ccccc1` [Compound 7]: the IC50 in assay [2], in assay [3], in assay [4] and in assay [5] was above 10 µM each time. For the same molecule, in assay [1], the Ki was found to be 0.9 µM.

For `C/C(=C\c1ccccc1)COC(=O)[C@@H]1CCCCN1C(=O)C(=O)c1ccccc1` [Compound 23], the IC50 in assay [2], in assay [3], in assay [4] and in assay [5] was above 10 µM in each case. Moreover, the Ki in assay [1] turned out to be 1.5 µM.

`C/C(=C\c1ccc(O)cc1)COC(=O)[C@@H]1CCCCN1C(=O)C(=O)c1ccccc1` [Compound 24]: the Ki in assay [1] was 6 µM.

On to `C/C(=C\[C@H]1CC[C@@H](O)CC1)COC(=O)[C@@H]1CCCCN1C(=O)C(=O)c1ccccc1` [Compound 25, (E)-3-[cis-4-(hydroxycyclohexyl)]-2-methylprop-2-enyl N-(phenylglyoxyl)-pipecolate], for which the half-maximal inhibitory concentration (IC50) in assay [2], in assay [3], in assay [4] and in assay [5] was above 10 µM each time. Moreover, the Ki in assay [1] worked out at 0.6 µM.

As to `C/C(=C\[C@H]1CC[C@H](O)CC1)COC(=O)[C@@H]1CCCCN1C(=O)C(=O)c1ccccc1` [Compound 26], the half-inhibitory concentration (IC50) is 6.5 µM in assay [2], above 10 µM in assay [3], above 10 µM in assay [4] and above 10 µM in assay [5]. For the same molecule, the Ki in assay [1] worked out at 0.5 µM.

As to `COC(=O)C(=O)N1CCCC[C@H]1C(=O)OC/C(C)=C/c1ccc(OC)c(OC)c1` [Compound 37], the Ki in assay [1] worked out at 10 µM.

Turning to `COC(=O)C(=O)N1CCCC[C@H]1C(=O)OC/C(C)=C/c1ccc(O)cc1` [Compound 38], the Ki in assay [1] came out at 60 µM.

Consider `O=C(C(=O)N1CCC[C@H]1C(=O)OCc1ccccc1)c1ccccn1` [Compound 43], for which the Ki in assay [1] stood at 300 µM.

`O=C(C(=O)N1CCCC[C@H]1C(=O)OCc1ccccc1)c1ccc(F)c(F)c1` [Compound 44]: the Ki in assay [1] came to 3 µM.

Regarding `COc1ccc(/C=C/C(=O)C(=O)N2CCCC[C@H]2C(=O)OCc2ccccc2)cc1` [Compound 45], the half-inhibitory concentration (IC50) in assay [2], in assay [3], in assay [4] and in assay [5] was above 10 µM in each case. In addition, the Ki in assay [1] was found to be 1 µM.

In the case of `O=C(C(=O)N1CCCC[C@H]1C(=O)OCc1ccccc1)c1ccccc1C(F)(F)F` [Compound 55], the Ki in assay [1] stood at 5 µM.

Regarding `O=C(C(=O)N1CCCC[C@H]1C(=O)OCCCCC1CCCCC1)c1ccccc1` [Compound 56], the IC50 in assay [2] is above 10 µM; in assay [3], 6.5 µM; in assay [4] it was above 10 µM; in assay [5], above 10 µM.

For `COc1cc(C(=O)C(=O)N2CCCC[C@H]2C(=O)OCCCCC2CCCCC2)cc(OC)c1OC` [Compound 57], the IC50 in assay [2] is 4.5 µM; in assay [3], 8 µM; in assay [4], 4 µM; in assay [5] it was above 10 µM.

Regarding `O=C(C(=O)N1CCCC[C@H]1C(=O)OCc1ccc(-c2ccccc2)cc1)c1ccccc1` [Compound 58], in assay [1], the Ki was 5 µM.

With `COc1cc(C(=O)C(=O)N2CCCC[C@H]2C(=O)OCc2ccc(-c3ccccc3)cc2)cc(OC)c1OC` [Compound 59], the Ki in assay [1] was 2 µM.

On to `CCOc1cccc(C(=O)C(=O)N2CCCC[C@H]2C(=O)OCc2ccccc2)c1` [Compound 60], for which the 50% inhibitory concentration (IC50) in assay [2], in assay [3], in assay [4] and in assay [5] was above 10 µM in each case. In assay [1], the Ki was determined as 0.56 µM.

In the case of `COc1cc(C(=O)C(=O)N2CCCC[C@H]2C(=O)OCc2cccc(Oc3ccccc3)c2)cc(OC)c1OC` [Compound 61], the IC50 in assay [2] is 8 µM; in assay [3], above 10 µM; in assay [4] it was 4 µM; in assay [5], above 10 µM.

Consider `O=C(C(=O)N1CCCC[C@H]1C(=O)OCCCCc1ccccc1)c1ccccc1` [Compound 64], for which the IC50 is 6 µM in assay [2], above 10 µM in assay [3], 10 µM in assay [4] and above 10 µM in assay [5].

`C=CCOc1cccc(C(=O)C(=O)N2CCCC[C@H]2C(=O)OCc2ccccc2)c1` [Compound 65]: the concentration for half-maximal inhibition (IC50) in assay [2], in assay [3], in assay [4] and in assay [5] was above 10 µM throughout. Moreover, the Ki in assay [1] came to 1 µM.

Regarding `CC(C)Oc1cccc(C(=O)C(=O)N2CCCC[C@H]2C(=O)OCc2ccccc2)c1` [Compound 66], the half-maximal inhibitory concentration (IC50) in assay [2], in assay [3], in assay [4] and in assay [5] was above 10 µM in each case. Further, the Ki in assay [1] was determined as 0.5 µM.

Take `CCC(C)C(=O)C(=O)N1CCCC[C@H]1C(=O)OCc1ccccc1` (stereo partly drawn) [Compound 67]: the half-inhibitory concentration (IC50) in assay [2], in assay [3], in assay [4] and in assay [5] was above 10 µM throughout. Also, in assay [1], the Ki was 1 µM.

For the molecule `O=C(C(=O)N1CCCC[C@H]1C(=O)OCCc1ccccc1)c1ccccc1` [Compound 68], the IC50 in assay [2], in assay [3], in assay [4] and in assay [5] was above 10 µM each time.

Regarding `O=C(C(=O)N1CCCC[C@H]1C(=O)OCCCCCCc1ccccc1)c1ccccc1` [Compound 69], the IC50 in assay [2] was above 10 µM; in assay [3], above 10 µM; in assay [4], 6.1 µM; in assay [5], above 10 µM. In assay [1], the Ki is 0.5 µM.

As to `COc1cc(C(=O)C(=O)N2CCCC[C@H]2C(=O)OCCCCCc2ccccc2)cc(OC)c1OC` [Compound 70], the IC50 in assay [2] is 4.5 µM; in assay [3] it was 9 µM; in assay [4] it was 7 µM; in assay [5], above 10 µM. Moreover, the Ki in assay [1] was 0.07 µM.

For `COc1cc(C(=O)C(=O)N2CCCC[C@H]2C(=O)OCCCc2c[nH]c3ccccc23)cc(OC)c1OC` [Compound 84], the IC50 in assay [2] is 6 µM; in assay [3] it was above 10 µM; in assay [4] it was 4.5 µM; in assay [5], 6 µM.

With `COc1ccc(OC)c(/C=C/C(=O)N2CCC[C@H]2C(=O)OCc2ccccc2)c1` [Compound 113], the Ki in assay [1] came to 10 µM.

As for `COc1cc(OC)c(OC)cc1/C=C/C(=O)N1CCC[C@H]1C(=O)OCc1ccccc1` [Compound 114], in assay [1], the Ki amounted to 25 µM.

For `O=C(OCc1ccccc1)[C@@H]1CCCCN1C(=O)/C=C/c1ccco1` [Compound 118], in assay [1], the Ki was 2.5 µM.

For `O=C(OCc1ccccc1)[C@@H]1CCCCN1C(=O)/C=C/c1ccoc1` [Compound 119], the Ki in assay [1] amounted to 2.5 µM.

Take `O=C(OCc1ccccc1)[C@@H]1CCCCN1C(=O)/C=C/c1cccnc1` [Compound 121]: the Ki in assay [1] stood at 25 µM.

In the case of `C=CC(=O)N1CCCC[C@H]1C(=O)OCc1ccccc1` [Compound 122], the Ki in assay [1] worked out at 300 µM.

For the molecule `O=C(OCc1ccccc1)[C@@H]1CCCCN1C(=O)/C=C/c1ccccc1` [Compound 123], the Ki in assay [1] amounted to 11 µM.

With `C[C@@H](C(=O)OCc1ccccc1)N(C)C(=O)/C=C/c1ccc2c(c1)OCO2` [Compound 131], the Ki in assay [1] amounted to 50 µM.

In the case of `C[C@H](NC(=O)/C=C/c1ccc2c(c1)OCO2)C(=O)OCc1ccccc1` [Compound 132, (S)-3-(3,4-Methylenedioxyphenyl)-prop-2-enoylalanine benzyl ester], the Ki in assay [1] was determined as 60 µM.
